Test systems include KM12; HL-60; MOLT-4; M14; NCI-H522; SW-620; SNB-75; SN12C; SK-MEL-28; SNB-19; UACC-62; HCT-15; SF-539; CAKI-1; COLO 205; HCC 2998; SR.
What all share (test): NCI tumour cell line growth inhibition, 48 h

SMILES strings stand for the structures.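 These data come from cells grown in 96-well plates and exposed to compound for 48 hours at five concentrations. GI50: concentration for 50% inhibition of growth.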 Activity calls are given as the source filed them. Cut-off read from the data, not from the text of the source: active = GI50 up to about 1.1 µM and inactive = higher. Some results are limits rather than exact numbers.

On to `NC(=S)NNC(=O)CCC(=O)Nc1ccc(Cl)cc1Cl`, for which the GI50 was > 100 µM (inactive) in the assay on KM12; > 100 µM (inactive) with HL-60; 55.3 µM (inactive) in the assay with MOLT-4; 37.1 µM (inactive) in the assay with M14; > 100 µM (inactive) in the assay with NCI-H522; > 100 µM (inactive) in the assay on SW-620. The GI50 with SNB-75 was > 100 µM (inactive); in the assay on SN12C, > 100 µM (inactive); in the assay with SK-MEL-28 it was > 100 µM (inactive); in the assay on SNB-19, > 100 µM (inactive); in the assay on UACC-62, 29.9 µM (inactive); in the assay with HCT-15, 50.4 µM. For the same compound, the GI50 with SF-539, in the assay on CAKI-1, in the assay on COLO 205 and in the assay with HCC 2998 was > 100 µM (inactive) in each case.
Turning to `CSc1ccc2c(cc1=O)[C@@H](NC(=O)c1cccc([N+](=O)[O-])c1)CCc1cc(O)c(O)c(O)c1-2`, the GI50 in the assay on KM12 was 31.2 µM (inactive); in the assay with HL-60, 26.1 µM (inactive); in the assay with MOLT-4 it was 21.6 µM (inactive); with M14, 25.3 µM (inactive); with NCI-H522 it was 12.6 µM (inactive); with SW-620, 23.5 µM (inactive). The GI50 is 25.1 µM (inactive) with SNB-75; 27.3 µM (inactive) in the assay with SN12C; > 100 µM (inactive) in the assay on SK-MEL-28; > 100 µM (inactive) in the assay on SNB-19; 18.3 µM (inactive) in the assay with UACC-62; 36.3 µM with HCT-15. The GI50 in the assay on SF-539 was 26.2 µM (inactive); with CAKI-1 it was 67.3 µM (inactive); in the assay on COLO 205, 38.9 µM (inactive); in the assay with HCC 2998, 92.7 µM (inactive).
As to `COc1ccc(N2C(=O)[C@@H]3[C@H](C2=O)c2[nH]c4ccccc4c2C2CCC(C(C)(C)C)C[C@@H]23)cc1` (stereo partly drawn), the GI50 with KM12 is 38.7 µM (inactive); with HL-60 it was > 100 µM (inactive); in the assay on MOLT-4 it was 14.4 µM (inactive); in the assay on M14, 29.2 µM (inactive); in the assay on NCI-H522 it was 18.5 µM (inactive); in the assay with SW-620, 35.2 µM (inactive). Also, the GI50 was 15.9 µM (inactive) in the assay on SNB-75; 14 µM (inactive) in the assay on SN12C; 34.4 µM (inactive) in the assay with SK-MEL-28; 22.1 µM (inactive) in the assay on SNB-19; 19.1 µM (inactive) with UACC-62; > 90.4 µM with HCT-15. The GI50 was 22.9 µM (inactive) with SF-539, 27.7 µM (inactive) in the assay on CAKI-1, 24 µM (inactive) in the assay on COLO 205 and 29.5 µM (inactive) in the assay with HCC 2998.
With `CC(=O)NNc1nc(C)c(C(/C=C/c2ccc(Cl)cc2)=N\NS(=O)(=O)c2ccc(C)cc2)s1`, the GI50 in the assay on KM12, with HL-60, in the assay with MOLT-4, in the assay with M14, in the assay on NCI-H522 and in the assay with SW-620 was > 100 µM (inactive) throughout. Besides, the GI50 is > 100 µM (inactive) with SNB-75; > 100 µM (inactive) in the assay with SN12C; > 100 µM (inactive) in the assay on SK-MEL-28; > 100 µM (inactive) with SNB-19; > 100 µM (inactive) with UACC-62; > 100 µM in the assay on HCT-15. Moreover, the GI50 in the assay on SF-539, with CAKI-1, in the assay with COLO 205 and in the assay with HCC 2998 was > 100 µM (inactive) in each case.
For the compound `CC(=O)OC1COC(N2CCc3ccccc32)C(OC(C)=O)C1OC(C)=O` (stereo not drawn), the GI50 in the assay on KM12, in the assay on MOLT-4, in the assay with SR, in the assay on M14, in the assay with NCI-H522 and with SW-620 was > 100 µM (inactive) each time. Moreover, the GI50 was > 100 µM (inactive) in the assay on SN12C; > 100 µM (inactive) with SK-MEL-28; > 100 µM (inactive) in the assay with SNB-19; > 94.6 µM (inactive) with UACC-62; > 100 µM in the assay on HCT-15; > 100 µM (inactive) in the assay with SF-539. For the same compound, the GI50 in the assay on CAKI-1, in the assay with COLO 205 and in the assay on HCC 2998 was > 100 µM (inactive) throughout.
Turning to `O=C(c1ccccc1)c1cccc(C(=O)c2ccccc2)c1`, the GI50 with KM12 was 44.1 µM (inactive); with MOLT-4, 67.9 µM (inactive); in the assay with SR it was 97.9 µM (inactive); in the assay on M14 it was > 100 µM (inactive); with NCI-H522 it was > 100 µM (inactive); in the assay on SW-620, > 100 µM (inactive). The GI50 with SNB-75 was 82 µM (inactive); with SN12C, > 100 µM (inactive); in the assay on SK-MEL-28, > 100 µM (inactive); in the assay on SNB-19, > 100 µM (inactive); in the assay on UACC-62, > 100 µM (inactive); with SF-539, > 100 µM (inactive). Besides, the GI50 in the assay on CAKI-1, with COLO 205 and in the assay on HCC 2998 was > 100 µM (inactive) each time.
Consider `CC1=C(C(=O)O)N2C(=O)[C@@H](NC(=O)C(c3ccc(O)cc3)N3CSC(=S)N(C(C)C)C3)C2SC1` (stereo partly drawn), for which the GI50 with KM12 was > 100 µM (inactive); in the assay on HL-60, > 100 µM (inactive); in the assay on MOLT-4, > 100 µM (inactive); with M14, > 100 µM (inactive); with NCI-H522, 50.1 µM (inactive); in the assay on SNB-75, > 100 µM (inactive). Also, the GI50 in the assay with SN12C was > 100 µM (inactive); in the assay on SK-MEL-28 it was > 100 µM (inactive); in the assay on SNB-19, > 100 µM (inactive); in the assay with UACC-62 it was > 100 µM (inactive); in the assay with HCT-15 it was > 100 µM; in the assay with SF-539, > 100 µM (inactive). Moreover, the GI50 in the assay on COLO 205 was 97.7 µM (inactive).
For the compound `O=C1CN=C(C[N+](=O)[O-])c2ccccc21`, the GI50 in the assay with KM12, with HL-60, in the assay on MOLT-4, in the assay with SR, in the assay on M14 and with NCI-H522 was > 100 µM (inactive) throughout. Moreover, the GI50 in the assay with SW-620 is > 100 µM (inactive); with SNB-75 it was > 100 µM (inactive); in the assay with SN12C, > 100 µM (inactive); in the assay with SK-MEL-28 it was > 100 µM (inactive); with SNB-19 it was > 100 µM (inactive); in the assay on HCT-15, > 100 µM. Besides, the GI50 in the assay with SF-539, in the assay on CAKI-1 and in the assay on COLO 205 was > 100 µM (inactive) throughout.
As to `CCOC(=O)CCc1c(C)c2c(OC)cc(OC)cc2oc1=O`, the GI50 in the assay on KM12 was > 100 µM (inactive); in the assay on HL-60 it was 88.3 µM (inactive); with M14, > 100 µM (inactive); with NCI-H522, > 100 µM (inactive); in the assay with SW-620, > 100 µM (inactive); in the assay with SNB-75, 21.5 µM (inactive). The GI50 with SN12C is 79.4 µM (inactive); in the assay on SK-MEL-28 it was > 100 µM (inactive); in the assay on SNB-19, > 100 µM (inactive); in the assay with SF-539 it was > 100 µM (inactive); in the assay on CAKI-1, 72.3 µM (inactive); with COLO 205 it was > 100 µM (inactive). In addition, in the assay on HCC 2998, the GI50 was > 100 µM (inactive).
`N#C/C(=C\c1cccc(O)c1)C(N)=O`: the GI50 with KM12 is > 100 µM (inactive); in the assay with HL-60, 20.9 µM (inactive); in the assay with MOLT-4, > 100 µM (inactive); in the assay on M14, > 100 µM (inactive); in the assay with NCI-H522, > 100 µM (inactive); in the assay with SW-620, > 100 µM (inactive). For the same compound, the GI50 is 22.3 µM (inactive) with SNB-75; > 100 µM (inactive) in the assay on SN12C; > 100 µM (inactive) in the assay on SK-MEL-28; > 100 µM (inactive) in the assay on SNB-19; > 100 µM (inactive) in the assay with UACC-62; > 100 µM in the assay with HCT-15. The GI50 in the assay with SF-539, in the assay with CAKI-1, in the assay with COLO 205 and in the assay with HCC 2998 was > 100 µM (inactive) throughout.
For the compound `COC(=O)CCC(NC(=S)N/N=C(\C)c1nccs1)C(=O)OC` (stereo not drawn), the GI50 with KM12 is > 100 µM (inactive); in the assay on HL-60 it was 10 µM (inactive); in the assay on MOLT-4, > 10 µM (inactive); with M14, 41.8 µM (inactive); in the assay on NCI-H522, 26.4 µM (inactive); in the assay with SW-620, 47.5 µM (inactive). The GI50 in the assay on SNB-75 was 68.2 µM (inactive); in the assay on SN12C, > 100 µM (inactive); in the assay on SK-MEL-28, > 100 µM (inactive); in the assay with SNB-19, > 100 µM (inactive); in the assay with UACC-62 it was 28.1 µM (inactive); in the assay with HCT-15 it was 46.3 µM. Further, the figures for the GI50 in the assay on SF-539, in the assay with COLO 205 and in the assay on HCC 2998 were > 100 µM (inactive), 11.3 µM (inactive) and 52.5 µM (inactive), respectively.
Take `O=C1N=CN=C2C=CC(Cl)=C(I)C12` (stereo not drawn): the GI50 in the assay on KM12 was > 100 µM (inactive); with HL-60, 93.5 µM (inactive); with MOLT-4, 67.1 µM (inactive); in the assay with SR, 91.8 µM (inactive); with M14 it was > 100 µM (inactive); in the assay with SW-620, > 100 µM (inactive). The GI50 is > 100 µM (inactive) in the assay on SN12C; > 100 µM (inactive) in the assay on SK-MEL-28; 47.9 µM (inactive) with SNB-19; 45.3 µM (inactive) with UACC-62; 24.3 µM (inactive) in the assay with CAKI-1; > 100 µM (inactive) with COLO 205. In addition, the GI50 in the assay with HCC 2998 is > 100 µM (inactive).
For `CN(C)CC/C(=N\Nc1ccc(Cl)c(Cl)c1)c1ccccc1`, the GI50 is 2.05 µM (inactive) in the assay on KM12; 2.29 µM (inactive) in the assay on HL-60; 2.17 µM (inactive) in the assay with MOLT-4; 2.13 µM (inactive) with SR; 2.16 µM (inactive) with NCI-H522; 1.72 µM (inactive) in the assay with SW-620. Further, the GI50 in the assay with SNB-75 is 2.4 µM (inactive); in the assay with SN12C it was 2.14 µM (inactive); in the assay on SK-MEL-28, 2.52 µM (inactive); in the assay with SNB-19, 3.49 µM (inactive); in the assay on UACC-62 it was 1.95 µM (inactive); in the assay on HCT-15 it was 1.98 µM. In addition, the GI50 in the assay on SF-539 was 1.82 µM (inactive); in the assay on COLO 205, 1.77 µM (inactive).

The values are drawn from ChEMBL document CHEMBL1201862, “PubChem BioAssay data set” (2004).
